{
  "source": "ChEMBL document CHEMBL2074266",
  "about": "“Molecular cloning and characterization of multispecific organic anion transporter 4 expressed in the placenta” (J Biol Chem, 2000)",
  "key": {"[1]": {"biological_target": "T1, Solute carrier family 22 member 11 (Homo sapiens, UniProt Q9NSA0)", "T1 sequence (Q9NSA0 whole entry)": "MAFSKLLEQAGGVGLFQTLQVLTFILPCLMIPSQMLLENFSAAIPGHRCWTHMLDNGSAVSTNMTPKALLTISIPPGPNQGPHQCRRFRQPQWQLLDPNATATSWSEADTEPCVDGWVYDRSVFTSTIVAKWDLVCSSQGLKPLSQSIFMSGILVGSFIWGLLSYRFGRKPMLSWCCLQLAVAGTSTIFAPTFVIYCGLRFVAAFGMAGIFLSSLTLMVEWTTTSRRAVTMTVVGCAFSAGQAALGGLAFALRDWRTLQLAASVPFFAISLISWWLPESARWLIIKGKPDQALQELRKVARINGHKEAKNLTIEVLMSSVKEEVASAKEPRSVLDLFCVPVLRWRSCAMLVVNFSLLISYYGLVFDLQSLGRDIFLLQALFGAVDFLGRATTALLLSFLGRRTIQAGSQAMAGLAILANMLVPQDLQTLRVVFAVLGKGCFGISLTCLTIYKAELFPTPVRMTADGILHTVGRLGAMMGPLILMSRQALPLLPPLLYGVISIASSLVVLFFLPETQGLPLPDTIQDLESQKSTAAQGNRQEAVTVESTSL", "assay": "TP_TRANSPORTER: inhibition of E1S uptake (E1S: 0.05 uM, beta-estradiol sulfate: 500 uM) in Xenopus laevis oocytes", "assay_type": "functional, cell-based", "conditions": "oocyte"}, "[2]": {"biological_target": "T1, Solute carrier family 22 member 11", "assay": "TP_TRANSPORTER: inhibition of E1S uptake (E1S: 0.05 uM, Estradiol-3-glucuronide: 500 uM) in Xenopus laevis oocytes", "assay_type": "functional, cell-based", "conditions": "oocyte"}, "[3]": {"biological_target": "T1, Solute carrier family 22 member 11", "assay": "TP_TRANSPORTER: inhibition of E1S uptake (E1S: 0.05 uM, alpha-naphthyl beta-D-glucuronide: 500 uM) in Xenopus laevis oocytes", "assay_type": "functional, cell-based", "conditions": "oocyte"}, "[4]": {"biological_target": "T1, Solute carrier family 22 member 11", "assay": "TP_TRANSPORTER: inhibition of E1S uptake (E1S: 0.05 uM, 4-methylumbelliferyl sulfate: 500 uM) in Xenopus laevis oocytes", "assay_type": "functional, cell-based", "conditions": "oocyte"}, "[5]": {"biological_target": "T1, Solute carrier family 22 member 11", "assay": "TP_TRANSPORTER: inhibition of E1S uptake (E1S: 0.05 uM, 4-methylumbeliferone glucuronide: 500 uM) in Xenopus laevis oocytes", "assay_type": "functional, cell-based", "conditions": "oocyte"}, "[6]": {"biological_target": "T1, Solute carrier family 22 member 11", "assay": "TP_TRANSPORTER: inhibition of E1S uptake (E1S: 0.05 uM, p-Nitrophenyl glucuronide: 500 uM) in Xenopus laevis oocytes", "assay_type": "functional, cell-based", "conditions": "oocyte"}, "[7]": {"biological_target": "T1, Solute carrier family 22 member 11", "assay": "(§1) TP_TRANSPORTER: uptake in Xenopus laevis oocytes", "assay_type": "functional, cell-based", "conditions": "oocyte"}, "[8]": {"biological_target": "T1, Solute carrier family 22 member 11", "assay": "TP_TRANSPORTER: inhibition of E1S uptake (E1S: 0.05 uM, Acetaminophen glucuronide: 500 uM) in Xenopus laevis oocytes", "assay_type": "functional, cell-based", "conditions": "oocyte"}, "[9]": {"biological_target": "T1, Solute carrier family 22 member 11", "assay": "TP_TRANSPORTER: inhibition of E1S uptake (E1S: 0.05 uM, Bumetanide: 500 uM) in Xenopus laevis oocytes", "assay_type": "functional, cell-based", "conditions": "oocyte"}, "[10]": {"biological_target": "T1, Solute carrier family 22 member 11", "assay": "TP_TRANSPORTER: inhibition of E1S uptake (E1S: 0.05 uM, Corticosterone: 500 uM) in Xenopus laevis oocytes", "assay_type": "functional, cell-based", "conditions": "oocyte"}, "[11]": {"biological_target": "T1, Solute carrier family 22 member 11", "assay": "TP_TRANSPORTER: inhibition of E1S uptake (E1S: 0.05 uM, Diclofenac: 500 uM) in Xenopus laevis oocytes", "assay_type": "functional, cell-based", "conditions": "oocyte"}, "[12]": {"biological_target": "T1, Solute carrier family 22 member 11", "assay": "TP_TRANSPORTER: inhibition of E1S uptake (E1S: 0.05 uM, beta-Estradiol: 500 uM) in Xenopus laevis oocytes", "assay_type": "functional, cell-based", "conditions": "oocyte"}, "[13]": {"biological_target": "T1, Solute carrier family 22 member 11", "assay": "TP_TRANSPORTER: inhibition of E1S uptake (E1S: 0.05 uM, Furosemide: 500 uM) in Xenopus laevis oocytes", "assay_type": "functional, cell-based", "conditions": "oocyte"}, "[14]": {"biological_target": "T1, Solute carrier family 22 member 11", "assay": "TP_TRANSPORTER: inhibition of E1S uptake (E1S: 0.05 uM, Glutarate: 500 uM) in Xenopus laevis oocytes", "assay_type": "functional, cell-based", "conditions": "oocyte"}, "[15]": {"biological_target": "T1, Solute carrier family 22 member 11", "assay": "TP_TRANSPORTER: inhibition of E1S uptake (E1S: 0.05 uM, Ibuprofen: 500 uM) in Xenopus laevis oocytes", "assay_type": "functional, cell-based", "conditions": "oocyte"}, "[16]": {"biological_target": "T1, Solute carrier family 22 member 11", "assay": "TP_TRANSPORTER: inhibition of E1S uptake (E1S: 0.05 uM, Indomethacin: 500 uM) in Xenopus laevis oocytes", "assay_type": "functional, cell-based", "conditions": "oocyte"}, "[17]": {"biological_target": "T1, Solute carrier family 22 member 11", "assay": "TP_TRANSPORTER: inhibition of E1S uptake (E1S: 0.05 uM, DHEAS: 500 uM) in Xenopus laevis oocytes", "assay_type": "functional, cell-based", "conditions": "oocyte"}, "[18]": {"biological_target": "T1, Solute carrier family 22 member 11", "assay": "TP_TRANSPORTER: inhibition of E1S uptake (E1S: 0.05 uM, BSP: 100 uM) in Xenopus laevis oocytes", "assay_type": "functional, cell-based", "conditions": "oocyte"}, "[19]": {"substrate": "C[C@]12CC[C@@H]3c4ccc(OS(=O)(=O)O)cc4CC[C@H]3[C@@H]1CCC2=O", "assay": "as §1", "assay_type": "functional, cell-based, Oocyte"}, "[20]": {"substrate": "[H][C@@]12CC=C3C[C@@H](OS(=O)(=O)O)CC[C@]3(C)[C@@]1([H])CC[C@]1(C)C(=O)CC[C@@]21[H]", "assay": "as §1", "assay_type": "functional, cell-based, Oocyte"}},
  "data": [
    {"molecule": "C[C@]12CC[C@@H]3c4ccc(OS(=O)(=O)O)cc4CC[C@H]3[C@@H]1CC[C@@H]2O", "values": [
      {"measurement": "Activity", "setting": "[1]", "result": "inhibitor [(at a rough estimate) 25 % of control]"}
    ]},
    {"molecule": "C[C@]12CC[C@@H]3c4ccc(O[C@@H]5O[C@H](C(=O)O)[C@@H](O)[C@H](O)[C@H]5O)cc4CC[C@H]3[C@@H]1CC[C@@H]2O", "values": [
      {"measurement": "Activity", "setting": "[2]", "result": "is not an inhibitor [-]"}
    ]},
    {"molecule": "O=C(O)[C@H]1O[C@@H](Oc2cccc3ccccc23)[C@H](O)[C@@H](O)[C@@H]1O", "values": [
      {"measurement": "Activity", "setting": "[3]", "result": "is not an inhibitor [-]"}
    ]},
    {"molecule": "Cc1cc(=O)oc2cc(OS(=O)(=O)O)ccc12", "values": [
      {"measurement": "Activity", "setting": "[4]", "result": "inhibitor [(at a rough estimate) 40 % of control]"}
    ]},
    {"molecule": "O=C(O)[C@H]1O[C@@H](OCc2cc(=O)oc3cc(O)ccc23)[C@H](O)[C@@H](O)[C@@H]1O", "values": [
      {"measurement": "Activity", "setting": "[5]", "result": "is not an inhibitor [-]"}
    ]},
    {"molecule": "O=C(O)[C@H]1O[C@@H](Oc2ccc([N+](=O)[O-])cc2)[C@H](O)[C@@H](O)[C@@H]1O", "values": [
      {"measurement": "Activity", "setting": "[6]", "result": "is not an inhibitor [-]"}
    ]},
    {"molecule": "C[C@@H]1Cc2c(Cl)cc(C(=O)N[C@@H](Cc3ccccc3)C(=O)O)c(O)c2C(=O)O1", "note": "[3R14S-OCHRATOXIN A]", "values": [
      {"measurement": "Activity", "setting": "[7]", "result": "substrate [+]"}
    ]},
    {"molecule": "CC(=O)Nc1ccc(O[C@@H]2O[C@H](C(=O)O)[C@@H](O)[C@H](O)[C@H]2O)cc1", "note": "[ACETAMINOPHEN GLUCURONIDE]", "values": [
      {"measurement": "Activity", "setting": "[8]", "result": "is not an inhibitor [-]"}
    ]},
    {"molecule": "Nc1ccc(C(=O)NCC(=O)O)cc1", "note": "[AMINOHIPPURIC ACID]", "values": [
      {"measurement": "Activity", "setting": "[7]", "result": "substrate [+]"}
    ]},
    {"molecule": "CCCCNc1cc(C(=O)O)cc(S(N)(=O)=O)c1Oc1ccccc1", "note": "[BUMETANIDE]", "values": [
      {"measurement": "Activity", "setting": "[9]", "result": "inhibitor [(at a rough estimate) 15 % of control]"}
    ]},
    {"molecule": "C[C@]12C[C@H](O)[C@H]3[C@@H](CCC4=CC(=O)CC[C@@]43C)[C@@H]1CC[C@@H]2C(=O)CO", "note": "[CORTICOSTERONE]", "values": [
      {"measurement": "Activity", "setting": "[10]", "result": "inhibitor [(at a rough estimate) 30 % of control]"}
    ]},
    {"molecule": "O=C(O)Cc1ccccc1Nc1c(Cl)cccc1Cl", "note": "[DICLOFENAC]", "values": [
      {"measurement": "Activity", "setting": "[11]", "result": "inhibitor [(at a rough estimate) 5 % of control]"}
    ]},
    {"molecule": "C[C@]12CC[C@@H]3c4ccc(O)cc4CC[C@H]3[C@@H]1CC[C@@H]2O", "note": "[ESTRADIOL]", "values": [
      {"measurement": "Activity", "setting": "[12]", "result": "is not an inhibitor [-]"}
    ]},
    {"molecule": "NS(=O)(=O)c1cc(C(=O)O)c(NCc2ccco2)cc1Cl", "note": "[FUROSEMIDE]", "values": [
      {"measurement": "Activity", "setting": "[13]", "result": "inhibitor [(at a rough estimate) 5 % of control]"}
    ]},
    {"molecule": "O=C(O)CCCC(=O)O", "note": "[GLUTARATE]", "values": [
      {"measurement": "Activity", "setting": "[14]", "result": "is not an inhibitor [-]"}
    ]},
    {"molecule": "CC(C)Cc1ccc(C(C)C(=O)O)cc1", "note": "(stereo unspecified) [IBUPROFEN]", "values": [
      {"measurement": "Activity", "setting": "[15]", "result": "inhibitor [(at a rough estimate) 10 % of control]"}
    ]},
    {"molecule": "COc1ccc2c(c1)c(CC(=O)O)c(C)n2C(=O)c1ccc(Cl)cc1", "note": "[INDOMETHACIN]", "values": [
      {"measurement": "Activity", "setting": "[16]", "result": "inhibitor [(at a rough estimate) 5 % of control]"}
    ]},
    {"molecule": "C[C@]12CC[C@H](OS(=O)(=O)O)CC1=CC[C@@H]1[C@@H]2CC[C@]2(C)C(=O)CC[C@@H]12", "note": "[PRASTERONE SULFURIC ACID]", "values": [
      {"measurement": "Activity", "setting": "[17]", "result": "inhibitor [(at a rough estimate) 15 % of control]"}
    ]},
    {"molecule": "O=C1OC(c2ccc(O)c(S(=O)(=O)[O-])c2)(c2ccc(O)c(S(=O)(=O)[O-])c2)c2c(Br)c(Br)c(Br)c(Br)c21.[Na+].[Na+]", "note": "[SULFOBROMOPHTHALEIN SODIUM]", "values": [
      {"measurement": "Activity", "setting": "[18]", "result": "inhibitor [(at a rough estimate) <5 % of control]"}
    ]},
    {"molecule": "Solute carrier family 22 member 11 (Homo sapiens) (protein) MAFSKLLEQAGGVGLFQTLQVLTFILPCLMIPSQMLLENFSAAIPGHRCWTHMLDNGSAVSTNMTPKALLTISIPPGPNQGPHQCRRFRQPQWQLLDPNATATSWSEADTEPCVDGWVYDRSVFTSTIVAKWDLVCSSQGLKPLSQSIFMSGILVGSFIWGLLSYRFGRKPMLSWCCLQLAVAGTSTIFAPTFVIYCGLRFVAAFGMAGIFLSSLTLMVEWTTTSRRAVTMTVVGCAFSAGQAALGGLAFALRDWRTLQLAASVPFFAISLISWWLPESARWLIIKGKPDQALQELRKVARINGHKEAKNLTIEVLMSSVKEEVASAKEPRSVLDLFCVPVLRWRSCAMLVVNFSLLISYYGLVFDLQSLGRDIFLLQALFGAVDFLGRATTALLLSFLGRRTIQAGSQAMAGLAILANMLVPQDLQTLRVVFAVLGKGCFGISLTCLTIYKAELFPTPVRMTADGILHTVGRLGAMMGPLILMSRQALPLLPPLLYGVISIASSLVVLFFLPETQGLPLPDTIQDLESQKSTAAQGNRQEAVTVESTSL", "values": [
      {"measurement": "Km", "setting": "[19]", "result": 1.01, "unit": "µM"},
      {"measurement": "Km", "setting": "[20]", "result": 0.63, "unit": "µM"}
    ]}
  ]
}
